The results in this text go back to patent US20210040089A1, “KRAS MUTANT PROTEIN INHIBITORS” (Jacobio Pharmaceuticals Co., Ltd., priority 2019, published 2021).

Molecules are shown by their SMILES.

Assay [1] addresses T1, KRAS G12C (Homo sapiens, UniProt P01116, G12C).
T1 construct: HIS-KRAS (G12C, aa 2-185, Sino biological); purchased Sino biological
Kind of assay: SOS1 catalyzed nucleotide exchange assay (TR-FRET). It is filed as biochemical. The conditions noted are these: GDP-loaded HIS-KRAS(G12C), 1 hour pre-incubation with compound. In short, it runs like this:
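EDTA-stripped, GDP-loaded His-KRAS G12C (aa 2-185; 3 nM final) preincubated 1 h with compound, then SOS1 ExD (aa 564-1049; 2 μM) and BODIPY-FL GTP (80 nM) added for 4 h at 25 °C. TR-FRET via anti-His Tb cryptate (515/486 nm ratio); IC50 from 4-parameter logistic fit.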
On the technique in general: Time-resolved FRET reads energy transfer from a long-lived donor to a nearby acceptor.

For assay [2], the system named is Phospho-ERK1/2(THR202/TYR204) in NCI-H358 cells express KRAS G12C. Put plainly: Phospho-ERK1/2(THR202/TYR204) HTRF assay. The conditions noted are these: Homo sapiens; NCI-H358, 2 hours incubation; read-out: p-ERK inhibition in NCI-H358 IC50. In kind it is cell-based. In short, it runs like this:
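Compounds applied to attached cells for 2 h at 37 °C in RPMI 1640 with 0.1% FBS. Lysate phospho-ERK1/2 detected by HTRF after 4 h antibody incubation at 25 °C; IC50 from 4-parameter logistic fit.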

Assay [3] deals with NCI-H358 cells express KRAS G12C. Put plainly: Cell growth inhibition assay (CCK-8). It is filed as cell-based. The conditions noted are these: Homo sapiens, 144 h; NCI-H358, 6 days incubation. Summed up:
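Antiproliferative read-out: KRAS G12C-mutant NCI-H358 lung cancer cells (3000/well) exposed to compounds in RPMI 1640 with 10% FBS for 6 days at 37°C. Viability by CCK-8 (OD450) after 1.5-2 h; IC50 from 4-parameter logistic fit.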

T1 sequence (P01116 2-185 isoform P01116-2 G12C): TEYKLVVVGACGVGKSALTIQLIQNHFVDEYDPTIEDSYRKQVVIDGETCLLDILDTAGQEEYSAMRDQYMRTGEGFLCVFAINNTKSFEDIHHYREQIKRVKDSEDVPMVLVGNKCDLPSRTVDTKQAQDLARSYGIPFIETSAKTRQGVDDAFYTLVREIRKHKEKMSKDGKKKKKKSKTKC

With `C=CC(=O)N1CCN(c2nc(OCC3(CN4CC[C@H](N(C)C)C4)CC3)nc3c2CCN(c2cccc4cccc(C)c24)C3)CC1CC#N` (stereo partly drawn) [Compound 65, 2-(1-acryloyl-4-(2-((1-(((S)-3-(dimethylamino)pyrrolidin-1-yl)methyl)cyclopropyl)methoxy)-7-(8-methylnaphthalen-1-yl)-5,6,7,8-tetrahydropyrido[3,4-d]pyrimidin-4-yl)piperazin-2-yl)acetonitrile], the IC50 in assay [1] worked out at 1.46 nM; in assay [2] it was 87.8 nM; in assay [3] it was 32.8 nM.

Consider `C=C(F)C(=O)N1CCN(c2nc(OCC3(CN4CCN(C)CC4)CC3)nc3c2CCN(c2cccc4cccc(C)c24)C3)CC1CC#N` (stereo not drawn) [Compound 71, 2-(1-(2-fluoroacryloyl)-4-(7-(8-methylnaphthalen-1-yl)-2-((1-((4-methylpiperazin-1-yl)methyl)cyclopropyl)methoxy)-5,6,7,8-tetrahydropyrido[3,4-d]pyrimidin-4-yl)piperazin-2-yl)acetonitrile], for which the IC50 was found to be 7.57 nM in assay [1], 505 nM in assay [2] and 369 nM in assay [3].

In the case of `C=CC(=O)N1CCN(c2nc(OCC3(CN4CCCC4)CC3)nc3c2CCN(c2cccc4ccccc24)C3)CC1CC#N` (stereo not drawn) [Compound 4, 2-(1-acryloyl-4-(7-(naphthalen-1-yl)-2-((1-(pyrrolidin-1-ylmethyl)cyclopropyl)methoxy)-5,6,7,8-tetrahydropyrido[3,4-d]pyrimidin-4-yl)piperazin-2-yl)acetonitrile], the IC50 was 18.9 nM in assay [1], 97.7 nM in assay [2] and 93.3 nM in assay [3].

For the compound `C=C(F)C(=O)N1CCN(c2nc(OCC3(CN(C)C)CC3)nc3c2CCN(c2cccc4cccc(C)c24)C3)CC1CC#N` (stereo not drawn) [Compound 78, 2-(4-(2-((1-((dimethylamino)methyl)cyclopropyl)methoxy)-7-(8-methylnaphthalen-1-yl)-5,6,7,8-tetrahydropyrido[3,4-d]pyrimidin-4-yl)-1-(2-fluoroacryloyl)piperazin-2-yl)acetonitrile], the IC50 was 8.36 nM in assay [1], 208 nM in assay [2] and 208 nM in assay [3].

In the case of `C=CC(=O)N1CCN(c2nc(OCC3CCCCC3N(C)C)nc3c2CCN(c2cccc4ccccc24)C3)CC1CC#N` (stereo not drawn) [Compound 18, 2-(1-acryloyl-4-(2-((2-(dimethylamino)cyclohexyl)methoxy)-7-(naphthalen-1-yl)-5,6,7,8-tetrahydropyrido[3,4-d]pyrimidin-4-yl)piperazin-2-yl)acetonitrile], the IC50 is 428 nM in assay [1], 879 nM in assay [2] and 507 nM in assay [3].

Take `CN(C)CC1(COc2nc3c(c(N4CCN(C(=O)/C=C/CF)[C@@H](CC#N)C4)n2)CCN(c2cccc4cccc(Cl)c24)C3)CC1` [Compound 84, (S,E)-2-(4-(7-(8-chloronaphthalen-1-yl)-2-((1-((dimethylamino)methyl)cyclopropyl)methoxy)-5,6,7,8-tetrahydropyrido[3,4-d]pyrimidin-4-yl)-1-(4-fluorobut-2-enoyl)piperazin-2-yl)acetonitrile]: the IC50 in assay [1] amounted to 1.58 nM; in assay [2] it was 80.2 nM; in assay [3] it was 24.3 nM.

Turning to `C=CC(=O)N1CCN(c2nc(OCC3(CN4CC(F)C4)CC3)nc3c2CCN(c2cccc4cccc(C)c24)C3)CC1CC#N` (stereo not drawn) [Compound 62, 2-(1-acryloyl-4-(2-((1-((3-fluoroazetidin-1-yl)methyl)cyclopropyl)methoxy)-7-(8-methylnaphthalen-1-yl)-5,6,7,8-tetrahydropyrido[3,4-d]pyrimidin-4-yl)piperazin-2-yl)acetonitrile], the results for the IC50 in assay [1], in assay [2] and in assay [3] were 2.34 nM, 43 nM and 66.9 nM, respectively.

For `C=CC(=O)N1CCN(c2nc(OCC3CCCC3N(C)C)nc3c2CCN(c2cccc(Cl)c2Cl)C3)CC1CC#N` (stereo not drawn) [Compound 25, 2-(1-acryloyl-4-(7-(2,3-dichlorophenyl)-2-((2-(dimethylamino)cyclopentyl)methoxy)-5,6,7,8-tetrahydropyrido[3,4-d]pyrimidin-4-yl)piperazin-2-yl)acetonitrile], the IC50 amounted to 30.2 nM in assay [1], 267 nM in assay [2] and 164 nM in assay [3].

As to `C=CC(=O)N1CCN(c2nc(OCC3CCCC3N(C)C)nc3c2CCN(c2cccc4ccccc24)C3)CC1CC#N` (stereo not drawn) [Compound 14, 2-(1-acryloyl-4-(2-((2-(dimethylamino)cyclopentyl)methoxy)-7-(naphthalen-1-yl)-5,6,7,8-tetrahydropyrido[3,4-d]pyrimidin-4-yl)piperazin-2-yl)acetonitrile], the IC50 stood at 54.1 nM in assay [1], 234 nM in assay [2] and 217 nM in assay [3].

As for `C=CC(=O)N1CCN(c2nc(OCC3CCC(N(C)C)C3)nc3c2CCN(c2cccc4cccc(C)c24)C3)CC1CC#N` (stereo not drawn) [Compound 24, 2-(1-acryloyl-4-(2-((3-(dimethylamino)cyclopentyl)methoxy)-7-(8-methylnaphthalen-1-yl)-5,6,7,8-tetrahydropyrido[3,4-d]pyrimidin-4-yl)piperazin-2-yl)acetonitrile], the IC50 in assay [1] came to 20.1 nM; in assay [2], 237 nM; in assay [3], 93.6 nM.

As to `C=CC(=O)N1CCN(c2nc(OCC3(CN4CCCC4)CCC3)nc3c2CCN(c2cccc4ccccc24)C3)CC1CC#N` (stereo not drawn) [Compound 44, 2-(1-acryloyl-4-(7-(naphthalen-1-yl)-2-((1-(pyrrolidin-1-ylmethyl)cyclobutyl)methoxy)-5,6,7,8-tetrahydropyrido[3,4-d]pyrimidin-4-yl)piperazin-2-yl)acetonitrile], the IC50 in assay [1] stood at 33.2 nM; in assay [2], 220 nM; in assay [3], 742 nM.

With `C=CC(=O)N1CCN(c2nc(OCC3CCCC3N(C)C)nc3c2CCN(c2cccc(F)c2C(F)(F)F)C3)CC1CC#N` (stereo not drawn) [Compound 26, 2-(1-acryloyl-4-(2-((2-(dimethylamino)cyclopentyl)methoxy)-7-(3-fluoro-2-(trifluoromethyl)phenyl)-5,6,7,8-tetrahydropyrido[3,4-d]pyrimidin-4-yl)piperazin-2-yl)acetonitrile], the IC50 is 33.7 nM in assay [1], 231 nM in assay [2] and 154 nM in assay [3].

As for `C=CC(=O)N1CCN(c2nc(OCC3(CN4CCC4)CC3)nc3c2CCN(c2cccc(Cl)c2C(F)(F)F)C3)CC1CC#N` (stereo not drawn) [Compound 39, 2-(1-acryloyl-4-(2-((1-(azetidin-1-ylmethyl)cyclopropyl)methoxy)-7-(3-chloro-2-(trifluoromethyl)phenyl)-5,6,7,8-tetrahydropyrido[3,4-d]pyrimidin-4-yl)piperazin-2-yl)acetonitrile], the IC50 amounted to 7.28 nM in assay [1], 79.6 nM in assay [2] and 104 nM in assay [3].

As to `Cc1cccc2cccc(N3CCc4c(nc(OCC5(CN(C)C)CC5)nc4N4CCN(C(=O)/C=C/CO)C(CC#N)C4)C3)c12` (stereo not drawn) [Compound 69, (E)-2-(4-(2-((1-((dimethylamino)methyl)cyclopropyl)methoxy)-7-(8-methylnaphthalen-1-yl)-5,6,7,8-tetrahydropyrido[3,4-d]pyrimidin-4-yl)-1-(4-hydroxybut-2-enoyl)piperazin-2-yl)acetonitrile], the IC50 in assay [1] is 2.73 nM; in assay [2], 157 nM; in assay [3], 77.6 nM.

In the case of `C=CC(=O)N1CCN(c2nc(OCC3(CN4CCCC4)CC3)nc3c2CCN(c2cccc4cccc(Cl)c24)C3)CC1CC#N` (stereo not drawn) [Compound 61, 2-(1-acryloyl-4-(7-(8-chloronaphthalen-1-yl)-2-((1-(pyrrolidin-1-ylmethyl)cyclopropyl)methoxy)-5,6,7,8-tetrahydropyrido[3,4-d]pyrimidin-4-yl)piperazin-2-yl)acetonitrile], the IC50 turned out to be 1.44 nM in assay [1], 16.2 nM in assay [2] and 25.1 nM in assay [3].

Turning to `C=CC(=O)N1CCN(c2nc(OCC3CC(N(C)C)C3)nc3c2CCN(c2cccc4ccccc24)C3)CC1CC#N` (stereo not drawn) [Compound 8, 2-(1-acryloyl-4-(2-((3-(dimethylamino)cyclobutyl)methoxy)-7-(naphthalen-1-yl)-5,6,7,8-tetrahydropyrido[3,4-d]pyrimidin-4-yl)piperazin-2-yl)acetonitrile], the IC50 in assay [1] came out at 408 nM; in assay [2], 769 nM; in assay [3], 3470 nM.

With `C=CC(=O)N1CCN(c2nc(OCC3CCC(N(C)C)C3)nc3c2CCN(c2cccc4ccccc24)C3)CC1CC#N` (stereo not drawn) [Compound 17, 2-(1-acryloyl-4-(2-((3-(dimethylamino)cyclopentyl)methoxy)-7-(naphthalen-1-yl)-5,6,7,8-tetrahydropyrido[3,4-d]pyrimidin-4-yl)piperazin-2-yl)acetonitrile], the results for the IC50 in assay [1], in assay [2] and in assay [3] were 83.6 nM, 312 nM and 299 nM, respectively.

As for `Cc1cccc2cccc(N3CCc4c(nc(OCC5(CN(C)C)CC5)nc4N4CCN(C(=O)/C=C/CN(C)C)C(CC#N)C4)C3)c12` (stereo not drawn) [Compound 85, (E)-2-(1-(4-(dimethylamino)but-2-enoyl)-4-(2-((1-((dimethylamino)methyl)cyclopropyl)methoxy)-7-(8-methylnaphthalen-1-yl)-5,6,7,8-tetrahydropyrido[3,4-d]pyrimidin-4-yl)piperazin-2-yl)acetonitrile], the results for the IC50 in assay [1], in assay [2] and in assay [3] were 2.86 nM, 153 nM and 132 nM, respectively.

For orientation: IC50 means the point on the concentration scale where inhibition reaches its midpoint.
